pIC50: −log10 of the molar value.
How the values were obtained:
[1] = test system: rats; assay: Reverse Passive Arthus Reaction in Rats (RPA); assay type: in vivo, male Sprague Dawley rats; settings: single dose of 3 mg IV, rat, 4 hours after BSA
Source text: The reverse passive Arthus reaction in rats is a modification of the method by Mulligan et al., as described in J. Clin. Invest, (1991) 88: 1396-1406. This is an experimental model in which the interaction of antigen-antibodycomplexes and complement leads to a severe vasculitis that is associated with edema, induration, erythema and hemorrhage. The interaction between the antigen-antibody complexes and complement leads to a localized influx of neutrophils. These neutrophils release a variety of mediators that are associated with tissue damage and vascular permeability. The localized inflammatory reaction is measured using different techniques i.e., vascular permeability and neutrophil influx which is evaluated both biochemically and microscopically.
Male Sprague Dawley specific pathogen-free rats with jugular vein cannulae (280-320 g, Hill Top Labs, Pennsylvania) are used in these studies. Animals are acclimated for at least 1 day and individually housed in stainless steel cages. The dorsal region of the rats is closely clipped 2 days prior to the experiments and divided into 4 sites on each side of the midline. Prior to all injections the rats are sedated with 0.4 ml per 300 gm rat of ketamine/rompun [1000 mg (10 ml) of ketamine HCl is mixed with 40 mg (2.0 ml) Rompun] administered IP and or inhalation anesthesia with metafane (methoxyflurane).
Bovin Serum Albumin (BSA) and rabbit polyclonal IgG rich in anti-BSA are purchased from Sigma Chemical Co. (St. Louis, Mo.). Radiolabelled ^125 I-BSA (spAct 1-5 μCi/μg) is purchased from Dupont NEN (Boston, Mass.).
Each rat is administered intradermal (ID) injection of (0.4 mg, 0.6 mg and 0.8 mg) anti-BSA in a volume of 100 μl per injection in normal saline. The ID injections are randomized near the mid dorsal region on both sides of the back bone. Immediately after the ID injections of the anti-BSA, the rats are administered intravenous (IV) injections of BSA (10 mg in 1.0 ml) in normal saline containing ^125 I labeled BSA (1 μCi/ml BSA or 5.0 μCi/kg body/wt) for quantification of dermal valscular injury. Anti-inflammatory agents such as inhibitors of adhesion molecules of the present invention are administered IV at a single dose of 3 mg immediately after BSA. Four (4) hours after the IV injection of BSA, the rats are anesthetized with metafane and 2 to 3 ml of blood is withdrawn via the cannula into an anticoagulant containing (EDTA or Heparin) tube and plasma separated and saved for neutrophil and albumin quantitation. The rats are killed and the skin surrounding the injection site (15 mm diameter) is punched out and weighed. The skin sample and a fixed volume of plasma (0.1 to 1.0 ml) is analyzed in a gamma-counter for ^125 I content. Skin samples from the contralateral side are processed and analyzed for myeloperoxidase activity (MPO) as a measure of neutrophil accumulation. As needed, samples are also processed for histological evaluation of the reacted sites.
The calculation of the plasma protein exudation into skin is made by determining the radioactivity in the tissue and relating this to the level of radioactive albumin in the blood at the time of sacrifice. […] [formula]
Percent inhibition of the test compound at 3 mg was determined as follows: [formula] Myeloperoxidase (MPO)
MPO is located in the azurophil granules of polymorphonuclear leukocytes (PMN). Because of its abundance in these cells (5% dry weight), this enzyme is used as a marker for tissue neutrophil content. For tissue MPO content, the method of Bradley, et al., was used as described in J. Invest. Dermatol. (1982) 78: 206-209. Biopsies from each treatment group were placed in plastic tubes (15×100 mm) containing 10 ml of 0.5% hexadecyltrimethylammonium bromide (HTAB) in 0.05M potassium phosphate buffer pH 6.0. The tissue was then homogenized with a Brinkmann Polytron homogenizer (10s). […]

[2] = test system: P-selectin; assay: P-Selectin adhesion receptor binding: ELISA, inhibition of P-selectin binding to immobilized sulfatides (cell free); settings: 45 minutes at 37° C., pH 8.0
Procedure: Based on the availability of soluble forms of P-selectin prepared as described by Aruffo, A. et al., Cell, 67, 35-44 (1991), a binding ELISA based assay modified from Foxall, et al., J. Cell Biol., 117, 1895-902 (1992) was developed to measure inhibitors of P-selectin binding to immobilized sulfatides. Such inhibitors were tested in the assay described below.
0.1 ml of sulfatide (SIGMA) at 1 μg/ml in MeOH was added to 48 wells of a 96-well ELISA plate (ProBind, Falcon) and allowed to dry overnight at room temperature. Another set of 48 wells were incubated with the solvent (methanol, Fisher Scientific). The next day the antigen/solvent coated plates were blocked for 1.5 hours at room temperature with 5% BSA (ICN) in buffer containing 20 mM Hepes, 1 mM CaCl2 and 0.15M NaCl, pH 8.0. […] Bound complexes were detected by addition of substrate buffer (95 mM NaOAc.3H2 O, 5 mM citric acid monohydrate, 1.4 mM urea/H2 O2) containing 3,3',5,5'-tetramethylbenzidine (SIGMA). Reactions were stopped by the addition of 3N sulfuric acid and the absorbance read on an ELISA reader at dual wavelengths 450 and 630 nm. […] The data is obtained as percent inhibition of specific binding [formula] and a plot of dose vs. percent inhibition of Rg binding is generated in which IC50 (μM) is calculated and reported as cell free data in Table 1.

[3] = test system: platelet: HL-60 cell adhesion; assay: HL-60 Platelet Cell Adhesion Assay; assay type: cell-based; settings: 0.5 h; thrombin-activated human platelets: HL-60 5:1, 30 minutes at room temperature; read-out: P-selectin HL-60 Platelets IC50
Procedure: HL-60 cells, obtained from American Type Culture Collection, were cultured in RPMI 1640 medium (GIBCO) supplemented with 20% fetal calf serum (Sigma) and 50 μg/ml gentamicin (GIBCO). Cells in log phase growth were harvested, washed and resuspended in Tyrodes buffer containing 5 mM HEPES and 0.2% bovine serum albumin and were fixed with 1% buffered formalin.
Blood from normal human donors was anticoagulated with citrate, layered over 1-Step Platelets (Accurate Chemical Co.) and centrifuged at 350 g for 20 minutes at room temperature. The platelet band was collected, diluted in 2 volumes of Tyrode's Buffer with 5 mM HEPES, 10 mM EDTA, and 0.2% BSA (pH 7.4) (THEB) and centrifuged at 600 g for 10 minutes. The platelet pellet was resuspended in THEB and incubated at room temperature for 1 hour. Calcein-acetoxy methylester (Calcein-Am, Molecular Probes) was added to the platelets at a final concentration of 10 μM and incubated for 10 minutes at 37° C. to label the platelets. Without washing, the platelets were counted on a Coulter counter model ZM, and the concentration was adjusted to 1×10^7 /ml. The platelets were activated with 2 U/ml of human thrombin for 10 minutes in Tyrode's containing 2 mM CaCl2, 5 mM HEPES, and 0.2% BSA (pH 7.4) (THB) at 37° C. and immediately fixed with 1% buffered formalin for 1 to 2 hours at room temperature. A small aliquot of labeled platelets was removed before activation and designated as non-activated.
Both platelets and HL-60 were washed in a ≥25 fold excess volume of Hanks Balanced Salt Solution (HBSS), resuspended in THB and counted. Cell concentrations were adjusted to 2×10^7 /ml for platelets and 4×10^6 /ml for HL-60, this ratio determined to be optimum for platelet: HL-60 cell adhesion. Compounds were incubated with 50 μl of platelets for 30 minutes at room temperature before addition of 50 μl of HL-60. This ratio of 5:1 platelets to HL-60 was incubated for 30 minutes at room temperature before addition of 0.2 ml of THB to increase the volume so the samples could be analyzed on a FACScan cytometer (Becton Dickinson). Non-activated platelets, and activated platelets with 10 mM EDTA were included as controls. Data were collected within a region set for the forward scatter channel corresponding to HL-60 size events.
The percent HL-60 cells which contained bound platelets was determined for each test condition. The inhibition of binding was determined by comparison to standards which were treated with vehicle alone (representing 0% inhibition) and standards whose specific binding had been blocked by the use of EDTA (representing 100% inhibition), by the following formula: [formula] where x=HL-60 cells containing bound platelets in the presence of the compound;
b=HL-60 cells containing bound platelets in the presence of EDTA;
a=HL-60 cells containing bound platelets in the presence of compound vehicle;
z=% inhibition of platelet: HL-60 cell adhesion

[4] = molecular target: T1, P-selectin (Homo sapiens, UniProt P16109); settings: literature; cited from earlier work
T1 sequence (P16109 42-830): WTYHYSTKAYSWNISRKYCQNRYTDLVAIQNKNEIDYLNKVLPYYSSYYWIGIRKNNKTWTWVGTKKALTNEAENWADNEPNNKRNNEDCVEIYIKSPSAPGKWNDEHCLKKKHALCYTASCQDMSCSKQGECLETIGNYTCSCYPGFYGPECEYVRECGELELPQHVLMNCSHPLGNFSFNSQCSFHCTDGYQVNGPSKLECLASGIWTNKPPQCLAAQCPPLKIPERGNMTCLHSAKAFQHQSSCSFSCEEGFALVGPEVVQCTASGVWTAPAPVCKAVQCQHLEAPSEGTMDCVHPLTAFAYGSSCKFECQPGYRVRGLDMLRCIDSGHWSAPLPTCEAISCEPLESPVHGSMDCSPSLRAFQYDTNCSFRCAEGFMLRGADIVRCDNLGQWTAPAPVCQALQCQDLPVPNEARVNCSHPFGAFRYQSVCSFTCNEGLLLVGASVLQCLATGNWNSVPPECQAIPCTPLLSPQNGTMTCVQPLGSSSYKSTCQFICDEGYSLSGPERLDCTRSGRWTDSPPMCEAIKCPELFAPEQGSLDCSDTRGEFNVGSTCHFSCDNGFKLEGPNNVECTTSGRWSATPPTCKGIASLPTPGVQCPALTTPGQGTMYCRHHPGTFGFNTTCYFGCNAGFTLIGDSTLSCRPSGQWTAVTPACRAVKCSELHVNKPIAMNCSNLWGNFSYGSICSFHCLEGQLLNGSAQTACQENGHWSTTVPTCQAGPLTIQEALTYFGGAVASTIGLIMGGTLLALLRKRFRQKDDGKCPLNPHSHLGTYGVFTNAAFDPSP

[5] = test system: myeloid cell lines; settings: cells grown in the presence of the substance; cited from earlier work

SMILES: CCCCCCCCCCCCC/C=C/[C@@H](OC(=O)c1ccccc1)[C@H](CO[C@H]1O[C@H](CO)[C@H](O)[C@H](OC(=O)c2ccccc2)[C@H]1OCCC(C(=O)O)C(=O)O)NC(=O)CCCCCCCCCCCCCCC [Example 2, (2S,3R,4E)-3-Benzoyloxy-2-hexadecanoylamino-1-[2-O-(3,3-di-carboxyprop-1-yl)-3-O-benzoyl-α-D-galactopyranosyloxy]-4-octadecene]
- RPA MPO % Inhib. (myeloperoxidase) [1]: 96%
- RPA VP % Inhib. (vascular permeability) [1]: 41%
- pIC50 [2]: 5.09
- pIC50 [3]: 4.92

SMILES: CCCCCCCCCCCCC/C=C/[C@@H](OC(=O)c1ccccc1)[C@H](CO[C@H]1O[C@H](CO)[C@H](O)[C@H](OC(=O)c2ccccc2)[C@H]1OCCCCC(C(=O)O)C(=O)O)NC(=O)CCCCCCCCCCCCCCC [Example 4, (2S,3R,4E)-3-Benzoyloxy-2-hexadecanoylamino-1-[2-O-(5,5-dicarboxypent-1-yl)-3-O-benzoyl-α-D-galactopyranosyloxy]-4-octadecene]
- RPA MPO % Inhib. (myeloperoxidase) [1]: 84%
- RPA VP % Inhib. (vascular permeability) [1]: 60%
- pIC50 [2]: 5.15
- pIC50 [3]: 4.72

SMILES: CC(=O)N[C@H]1C(O)O[C@H](CO)[C@@H](O[C@@H]2O[C@H](CO)[C@H](O)[C@H](O)[C@H]2O)[C@@H]1O[C@@H]1O[C@@H](C)[C@@H](O)[C@@H](O)[C@@H]1O (stereo partly shown) [Le^x]
- binding to P-selectin [4]: shown to bind

SMILES: O=[Se](=O)(O)O [sodium selenate]
- inhibition of binding of P-selectin to myeloid cell lines [5]: can be inhibited

Source: patent US5747463A, “Malonate derivatives of glycolipids as cell adhesion inhibitors” (Bristol-Myers Squibb Company, priority 1996, dated 1998)
